Assays:
[1] = Cmax in healthy adult plasma at 150 mg, po administered as single dose by LC/MS analysis; format: ADME, organism-based; parameters: dose 150 mg, route oral; conditions: human
[2] = Cmax in healthy adult CSF at 150 mg, po administered as single dose by LC/MS analysis; format: ADME, organism-based, Cerebrospinal fluid; parameters: dose 150 mg, route oral; conditions: human
[3] = Tmax in healthy adult plasma at 150 mg, po administered as single dose by LC/MS analysis; format: ADME, organism-based; conditions: human
[4] = Tmax in healthy adult CSF at 150 mg, po administered as single dose by LC/MS analysis; format: ADME, organism-based, Cerebrospinal fluid; conditions: human
[5] = Clast in healthy adult plasma at 150 mg, po administered as single dose by LC/MS analysis; format: ADME, organism-based; conditions: human, in vivo
[6] = Clast in healthy adult CSF at 150 mg, po administered as single dose by LC/MS analysis; format: ADME, organism-based, Cerebrospinal fluid; conditions: human, in vivo
[7] = Tlast in healthy adult plasma at 150 mg, po administered as single dose by LC/MS analysis; format: ADME, organism-based; conditions: human, in vivo
[8] = Tlast in healthy adult CSF at 150 mg, po administered as single dose by LC/MS analysis; format: ADME, organism-based, Cerebrospinal fluid; conditions: human, in vivo
[9] = AUC (0 to last) in healthy adult plasma at 150 mg, po administered as single dose by LC/MS analysis; format: ADME, organism-based; parameters: dose 150 mg, time 0 - last, route oral; conditions: human
[10] = AUC (0 to last) in healthy adult CSF at 150 mg, po administered as single dose by LC/MS analysis; format: ADME, organism-based; parameters: dose 150 mg, route oral, time 0 - last; conditions: human
[11] = Half life in healthy adult plasma at 150 mg, po administered as single dose by LC/MS analysis; format: ADME, organism-based; conditions: human
[12] = AUC (0 to infinity) in healthy adult plasma at 150 mg, po administered as single dose by LC/MS analysis; format: ADME, organism-based; parameters: dose 150 mg, time infinity, route oral; conditions: human
[13] = Apparent oral clearance in healthy adult plasma at 150 mg, po administered as single dose by LC/MS analysis; format: ADME, organism-based; conditions: human
[14] = Ratio of Cmax in healthy adult CSF to Cmax in healthy adult plasma at 150 mg, po administered as single dose; format: ADME, organism-based; conditions: human
[15] = Ratio of AUC (0 to last) in healthy adult CSF to AUC (0 to last) in healthy adult plasma at 150 mg, po administered as single dose; format: ADME, organism-based; conditions: human
[16] = Cmax in healthy adult plasma assessed as oseltamivir carboxylate at 150 mg, po administered as single dose by LC/MS analysis; format: ADME, organism-based; parameters: dose 150 mg, route oral; conditions: human, in vivo
[17] = Cmax in healthy adult CSF assessed as oseltamivir carboxylate at 150 mg, po administered as single dose by LC/MS analysis; format: ADME, organism-based, Cerebrospinal fluid; parameters: dose 150 mg, route oral; conditions: human, in vivo
[18] = Tmax in healthy adult plasma assessed as oseltamivir carboxylate at 150 mg, po administered as single dose by LC/MS analysis; format: ADME, organism-based; conditions: human, in vivo
[19] = Tmax in healthy adult CSF assessed as oseltamivir carboxylate at 150 mg, po administered as single dose by LC/MS analysis; format: ADME, organism-based, Cerebrospinal fluid; conditions: human, in vivo
[20] = Clast in healthy adult plasma assessed as oseltamivir carboxylate at 150 mg, po administered as single dose by LC/MS analysis; format: ADME, organism-based; conditions: human, in vivo
[21] = Clast in healthy adult CSF assessed as oseltamivir carboxylate at 150 mg, po administered as single dose by LC/MS analysis; format: ADME, organism-based, Cerebrospinal fluid; conditions: human, in vivo
[22] = Tlast in healthy adult plasma assessed as oseltamivir carboxylate at 150 mg, po administered as single dose by LC/MS analysis; format: ADME, organism-based; conditions: human, in vivo
[23] = Tlast in healthy adult CSF assessed as oseltamivir carboxylate at 150 mg, po administered as single dose by LC/MS analysis; format: ADME, organism-based, Cerebrospinal fluid; conditions: human, in vivo
[24] = AUC (0 to last) in healthy adult plasma assessed as oseltamivir carboxylate at 150 mg, po administered as single dose by LC/MS analysis; format: ADME, organism-based; parameters: dose 150 mg, time 0 - last, route oral; conditions: human, in vivo
[25] = AUC (0 to last) in healthy adult CSF assessed as oseltamivir carboxylate at 150 mg, po administered as single dose by LC/MS analysis; format: ADME, organism-based, Plasma; parameters: dose 150 mg, route oral, time 0 - last; conditions: human, in vivo
[26] = Half life in healthy adult plasma assessed as oseltamivir carboxylate at 150 mg, po administered as single dose by LC/MS analysis; format: ADME, organism-based; conditions: human, in vivo
[27] = AUC (0 to infinity) in healthy adult plasma assessed as oseltamivir carboxylate at 150 mg, po administered as single dose by LC/MS analysis; format: ADME, organism-based; parameters: dose 150 mg, time infinity, route oral; conditions: human, in vivo
[28] = Ratio of Cmax in healthy adult CSF to Cmax in healthy adult plasma assessed as oseltamivir carboxylate at 150 mg, po administered as single dose; format: ADME, organism-based; conditions: human
[29] = Ratio of AUC (0 to last) in healthy adult CSF to AUC (0 to last) in healthy adult plasma assessed as oseltamivir carboxylate at 150 mg, po administered as single dose; format: ADME, organism-based; conditions: human

Cmax [1]: 115 ng/mL
Cmax [2]: 2.4 ng/mL
Tmax [3]: 1 h
Tmax [4]: 3.5 h
Clast [5]: 2.1 ng/mL
Clast [6]: 1.4 ng/mL
Tlast [7]: 10.5 h
Tlast [8]: 5.5 h
AUC(0-t) [9]: 308 ng·h/mL
AUC(0-t) [10]: 7.6 ng·h/mL
half-life [11]: 1.8 h
AUC(0-inf) [12]: 313 ng·h/mL
CL/F [13]: 8370 mL/min
Kp [14]: 2.1%
Kp [15]: 2.4%
Cmax [16]: 544 ng/mL
Cmax [17]: 19 ng/mL
Tmax [18]: 5 h
Tmax [19]: 8 h
Clast [20]: 50.2 ng/mL
Clast [21]: 14.5 ng/mL
Tlast [22]: 24 h
Tlast [23]: 12 h
AUC [24]: 5540 ng·h/mL
AUC [25]: 157 ng·h/mL
t1/2 [26]: 5.4 h
AUC [27]: 5950 ng·h/mL
Ratio [28]: 3.5%
Ratio AUC [29]: 2.9%
Compound: CCOC(=O)C1=C[C@@H](OC(CC)CC)[C@H](NC(C)=O)[C@@H](N)C1.O=P(O)(O)O [OSELTAMIVIR PHOSPHATE]

Reference: ChEMBL document CHEMBL1275518, “Low penetration of oseltamivir and its carboxylate into cerebrospinal fluid in healthy Japanese and Caucasian volunteers” (Antimicrob Agents Chemother, 2008)
